Here are results for three compounds from ChEMBL document CHEMBL4396913, “Synthesis and biological evaluation of hybrid quinolone-based quaternary ammonium antibacterial agents” (Eur J Med Chem, 2019).

SMILES strings stand for the structures. Active and inactive are the calls of the source.

In data set [1] the test system is Proteus vulgaris. Put plainly: Bactericidal activity against Proteus vulgaris NCTC 4635 cultured in MH medium assessed as reduction in bacterial survival incubated for 48 hrs by microbroth dilution method. It counts as functional. The note with it: NCTC 4635, 48 h. On the technique in general: Dilution methods test growth across graded concentrations, often in twofold steps.

Data set [2] relates to Pseudomonas aeruginosa. In words: Antibacterial activity against Pseudomonas aeruginosa ATCC 9027 cultured in MH medium assessed as reduction in bacterial growth incubated for 48 hrs by microbroth dilution method. Format: functional. To be noted: ATCC 9027, 48 h.
Another data set deals with DNA gyrase (Escherichia coli, UniProt P0AES4+P0AES6). In words: Inhibition of Escherichia coli DNA gyrase super-coiling activity using relaxed pNO1 DNA as substrate incubated for 30 mins by fluorescence assay. It counts as protein-complex assay.
A further data set deals with Enterococcus hirae. In words: Bactericidal activity against Enterococcus hirae ATCC 1052 cultured in BHI medium assessed as reduction in bacterial survival incubated for 48 hrs by microbroth dilution method. It counts as functional. The note with it: ATCC 1052, 48 h.
For data set [3], the system named is Escherichia coli. In words: Antibacterial activity against […] Escherichia coli ATCC 8739 assessed as reduction in bacterial growth incubated for 48 hrs in presence of 50 ug/ml […], PAbetaN by microbroth dilution method. Format: functional. To be noted: ATCC 8739, 48 h.
Data set [4] has as its system Proteus vulgaris. In words: Antibacterial activity against Proteus vulgaris NCTC 4635 cultured in MH medium assessed as reduction in bacterial growth incubated for 48 hrs by microbroth dilution method. To be noted: NCTC 4635, 48 h. Format: functional.
The subject of data set [5] is Staphylococcus epidermidis. Put plainly: Bactericidal activity against Staphylococcus epidermidis ATCC 14990 cultured in MH medium assessed as reduction in bacterial survival incubated for 48 hrs by microbroth dilution method. Format: functional. To be noted: ATCC 14990, 48 h.
Data set [6] has as its system Escherichia coli. Put plainly: Bactericidal activity against […] Escherichia coli ATCC 8739 assessed as reduction in bacterial survival incubated for 48 hrs in presence of 50 ug/ml […], PAbetaN by microbroth dilution method. It counts as functional. The note with it: ATCC 8739, 48 h.
In data set [7] the test system is Pseudomonas aeruginosa. Put plainly: Antibiofilm activity against Pseudomonas aeruginosa ATCC 9027 assessed as biofilm formation at 0.5 times antibacterial MIC incubated for 24 hrs compound added prior to bacterial biofilm formation by total biomass crystal violet staining-based method relative to control. Format: functional.
The subject of data set [8] is Staphylococcus aureus. In words: Antibiofilm activity against Staphylococcus aureus ATCC 25923 assessed as biofilm biomass at <0.625 uM incubated for 24 hrs compound added prior to bacterial biofilm formation by crystal violet staining based assay. Format: functional, organism-based.
Data set [9] concerns Staphylococcus epidermidis. Put plainly: Resistance index, ratio of MIC for methicillin resistant Staphylococcus epidermidis ATCC 13199 measured after 4 dilution steps to MIC for Staphylococcus epidermidis ATCC 13199 measured after 48 hrs incubation by microbroth dilution method. Format: functional.
For data set [10], the system named is Staphylococcus epidermidis. In words: Resistance index, ratio of MIC for methicillin resistant Staphylococcus epidermidis ATCC 13199 measured after 2 dilution steps to MIC for Staphylococcus epidermidis ATCC 13199 measured after 48 hrs incubation by microbroth dilution method. It counts as functional.
A short description of data set [11]: Drug uptake in Escherichia coli ATCC 8739 assessed as membrane accumulation and affinity to cell structure at 128 ug/ml incubated for 30 mins by laser confocal microscopy. Format: ADME. To be noted: 0.5 h.
Data set [12] concerns Escherichia coli. Put plainly: Induction of inner membrane permeabilization in Escherichia coli ATCC 8739 assessed as increase in release of cytoplasmic beta galactosidase using ONPG as substrate at above bactericidal concentration incubated for 90 mins compound added with bacterial cells after lag time of about 10 mins by spectrophotometry. It counts as organism-based.
The subject of data set [13] is Escherichia coli. In words: Antibacterial activity against Escherichia coli ATCC 8739 assessed as reduction in cell number with morphological disorders at 128 ug/ml incubated for 30 mins by laser confocal microscopy. Format: functional, organism-based.
The subject of data set [14] is Escherichia coli. In words: Antibacterial activity against Escherichia coli ATCC 8739 assessed as bacterial cell swelling followed by non-divisional long cord formation and cell aggregates formation at 128 ug/ml incubated for 30 mins by laser confocal microscopy. Format: functional, organism-based.
Data set [15] has as its system Escherichia coli. Put plainly: Induction of inner membrane permeabilization in Escherichia coli ATCC 8739 assessed as increase in release of cytoplasmic beta galactosidase using ONPG as substrate at 128 ug/ml incubated for 90 mins compound added with bacterial cells after lag time of about 10 mins by spectrophotometry. It counts as organism-based.
The test system of data set [16] is Staphylococcus aureus. In words: Antibiofilm activity against Staphylococcus aureus ATCC 25923 pre-formed mature biofilm assessed as reduction in biofilm biomass at 40 uM incubated for 24 hrs compound added post biofilm formation by crystal violet staining based assay relative to control. Format: functional. The note with it: ATCC 25923, 24 h.
Data set [17] has as its system Staphylococcus aureus. In words: Antibiofilm activity against Staphylococcus aureus ATCC 25923 pre-formed mature biofilm assessed as reduction in biofilm viability at 40 uM incubated for 24 hrs compound added post-biofilm formation by resazurin staining based assay relative to control. It counts as functional. To be noted: ATCC 25923, 24 h. A general note: The colour change of resazurin is a common sign of viable cells or microbes.

The nature of data set [18]: Drug uptake in Escherichia coli ATCC 8739 assessed as cellular accumulation treated with 100 uM CCCP for 10 mins prior to compound challenge for 0.5 hrs by laser confocal microscopy. Format: ADME.

Usually MBC stands for the lowest tested concentration that kills the bacteria rather than only halting them. The MIC is the smallest concentration in the dilution series that meets the test's criterion for growth inhibition. As usually defined, the IC50 is the midpoint of a concentration-inhibition curve. The low end stands for greater potency, the high end for weaker potency. The inhibition is the change of the read-out against control, counted positive when it falls. `CCn1cc(C(=O)O)c(=O)c2cc(F)c(N3CC[N+]4(CN5C(=N4)C(C(=O)O)=Cc4ccccc45)C(C)C3)c(F)c21.[Cl-]` (configuration not stated): the MBC was 0.125 µg/mL in the data set with Proteus vulgaris [1], 512 µg/mL in the data set on Enterococcus hirae, 4 µg/mL in [5] and 0.25 µg/mL in the data set on Escherichia coli [6]. Also, the minimum inhibitory concentration (MIC) in the data set on Pseudomonas aeruginosa [2] stood at 1 µg/mL; in the data set with Escherichia coli [3] it was 0.125 µg/mL; in the data set on Proteus vulgaris [4] it was 0.125 µg/mL. At DNA gyrase, this compound came in with a 50% inhibitory concentration (IC50) of 2.44 µM. In addition, the Activity with Pseudomonas aeruginosa [7] was found to be 73%. For the same compound, the inhibition entry in the data set with Staphylococcus aureus [8] was “inactive”.

`CCn1cc(C(=O)O)c(=O)c2cc(F)c(N3CC[N+]4(CC3)CN3C(=N4)C(C(=O)O)=Cc4ccccc43)nc21.[Cl-]`: the Ratio in [9] was determined as 16; in data set [10] it was 4. Further, the minimal bactericidal concentration (MBC) in the data set with Proteus vulgaris [1] turned out to be 0.5 µg/mL; in the data set on Enterococcus hirae, 512 µg/mL; in data set [5] it was 4 µg/mL; in the data set with Escherichia coli [6], 1 µg/mL. Also, the minimum inhibitory concentration (MIC) in the data set on Pseudomonas aeruginosa [2] stood at 1 µg/mL; in the data set on Escherichia coli [3], 0.5 µg/mL; in the data set with Proteus vulgaris [4], 0.25 µg/mL. Moreover, in the data set with Pseudomonas aeruginosa [7], the Activity came out at 52%. The inhibition result in the data set with Staphylococcus aureus [8] is “inactive”.

For the compound `O=C(O)C1=Cc2ccccc2N2C[N+]3(CCN(c4cc5c(cc4F)c(=O)c(C(=O)O)cn5C4CC4)CC3)N=C12.[Cl-]`, the figures for the Drug uptake result in data set [11] and in data set [18] were “Not Active” and “Dose-dependent effect”, respectively. Besides, the result in the data set with Escherichia coli [12], with Escherichia coli [13], in the data set with Escherichia coli [14] and in the data set with Escherichia coli [15] was Active. In addition, the minimal bactericidal concentration (MBC) in the data set with Proteus vulgaris [1] came out at 0.063 µg/mL; in data set [5], 2 µg/mL; in the data set on Escherichia coli [6], 0.5 µg/mL. The MIC was 2 µg/mL with Pseudomonas aeruginosa [2], 0.25 µg/mL with Escherichia coli [3] and 0.063 µg/mL with Proteus vulgaris [4]. At DNA gyrase, the half-inhibitory concentration (IC50) was determined as 6.02 µM. The inhibition at 40 µM in the data set on Staphylococcus aureus [16] amounted to 50%; in the data set on Staphylococcus aureus [17], 100%. For the same compound, in the data set with Pseudomonas aeruginosa [7], the Activity was determined as 26%.
